According to US5726162A (priority 1996, dated 1998):

Tests used:
fungal mycelium = assay: organism not typed; format: cell-based; conditions: read-out: % growth inhibition
[1] = test system: Magnaporthe grisea (Pyricularia oryzae); assay: whole plant or invertebrate; format: in vivo, Magnaporthe grisea (Pyricularia oryzae) on M201 rice plants; conditions: Pyricularia oryzae, 144 h, read-out: % Control RB

Structure (SMILES)	inhibition at 10 ppm (fungal mycelium)	inhibition at 50 ppm (fungal mycelium)	further results
CCC#CCN1N=C(c2ccc(Br)c(F)c2)CCC1=O [Compound 97]	–	–	inhibition at 1 ppm (fungal mycelium): 100%
CCC#CCN1N=C(c2cc(F)cc(F)c2)CCC1=O [Compound 98]	40%	–	–
CCC#CCn1nc(-c2cc(F)cc(F)c2)ccc1=O [Compound 126]	100%	–	–
CC#CCN1N=C(c2ccc3ccccc3c2)CCC1=O [Compound 135]	–	–	pest or weed control at 200 ppm [1]: 0%
CCC#CCN1N=C(c2ccc(Cl)cc2)COC1=O [Compound 162, 2-(4-chlorophenyl)-3-(2-pentyn-1-yl)-3H, 6H-1,3,4-oxadiazin-2-one]	96.9%	–	–
CC#CCN1N=C(c2ccc(Cl)cc2)COC1=O [Compound 163]	12.7%	–	–
CCC#CCN1N=C(c2ccccc2)COC1=O [Compound 164]	–	–	inhibition at 100 ppm (fungal mycelium): 14.2%
CCC#CCN1N=C(c2ccc(Cl)cc2)CSC1=O [Compound 165, 5-(4-chlorophenyl)-3-(2-pentyn-1-yl)-3H,6H-1,3,4-thiadiazin-2-one]	–	–	inhibition at 100 ppm (fungal mycelium): 100%
CCC#CCN1N=C2c3ccc(Cl)cc3CCC2CC1=O (stereo not shown) [Compound 200, 4,4a,5,6-tetrahydro-8-chloro[h]-cinnolin-2-(2'-pentynyl)-3-one]	100%	–	–
CN1N=C(c2ccc(Cl)cc2)CCC1=O [Compound 201, 6-(4-chlorophenyl)-2-methyl-4,5-dihydropyridazinone]	10%	–	–
CCC#CCn1nc2c(cc1=O)CCc1cc(Cl)ccc1-2 [Compound 202, 5 6-dihydro-8-chlorobenzo[h]cinnolin-3-(2'-pentynyl)-one]	100%	–	–
CCC#CCC1CC(c2ccc(Cl)cc2)=NN(C)C1=O (stereo not shown) [Compound 203, 6-(4-chlorophenyl)-4-(2'-pentynyl)-2-methyl-4,5-dihydropyridazinone]	100%	–	–
Cc1ccc(Cn2nc(-c3ccc(Cl)cc3)ccc2=O)o1 [Compound 204, 6-(4-chlorophenyl)-2-(5-methyl-2-furanylmethylene)-pyridazinone]	100%	–	–
CCC#CCN1N=C(C=Cc2ccc(Cl)cc2)CCC1=O [Compound 205, 6-(4-chlorostyryl)-2-(2'-pentynyl)-4,5-dihydropyridazinone]	100%	–	–
CCC#CCN1N=C(CCc2ccc(Cl)cc2)CCC1=O [Compound 206, 6-(4-chlorophenethyl)-2-(2'-pentynyl)-4,5-dihydropyridazinone]	–	–	inhibition at 1 ppm (fungal mycelium): 14.3%
CCC#CCN1N=C(c2ccc3c(c2)OCO3)CCC1=O [Compound 207, 6-(3,4-methylenedioxyphenyl)-2-(2'-pentynyl)-4,5-dihydropyridazinone]	–	–	inhibition at 1 ppm (fungal mycelium): 100%
CCC#CC(C)N1N=C(c2ccc(Cl)cc2)CCC1=O (stereo not shown) [Compound 208, 6-(4-chlorophenyl)-2-(1-methyl-2-pentynyl)-4,5-dihydropyridazinone]	–	–	inhibition at 1 ppm (fungal mycelium): 28.6%
CCC#CCN1N=C(c2ccccc2F)CCC1=O [Compound 209, 6-(2-fluorophenyl)-2-(2'-pentynyl)-4,5-dihydropyridazinone]	–	85.7%	–
CCC#CCN1N=C(c2ccccc2C)CCC1=O [Compound 210, 6-(2-methylphenyl)-2-(2'-pentynyl)-4,5-dihydropyridazinone]	–	35%	–
CCC#CCN1N=C(c2ccccc2Cl)CCC1=O [Compound 211, 6-(2-chlorophenyl)-2-(2'-pentynyl)-4,5-dihydropyridazinone]	–	30%	–

Structure (SMILES)	inhibition at 10 ppm (fungal mycelium)	inhibition at 50 ppm (fungal mycelium)	further results
CCC#CCN1N=C(c2ccccc2OC)CCC1=O [Compound 212, 6-(2-methoxyphenyl)-2-(2'-pentynyl)-4,5-dihydropyridazinone]	–	35%	–
CCC#CCN1N=C(c2cccc(C(F)(F)F)c2)CCC1=O [Compound 213, 6-(3-trifluoromethylphenyl)-2-(2'-pentynyl)-4,5-dihydropyridazinone]	–	100%	–
CCC#CCN1N=C(c2cccc(F)c2)CCC1=O [Compound 214, 6-(3-fluorophenyl)-2-(2'-pentynyl)-4,5-dihydropyridazinone]	–	100%	–
CCC#CCN1N=C(c2cccc(C)c2)CCC1=O [Compound 215, 6-(3-methylphenyl)-2-(2'-pentynyl)-4,5-dihydropyridazinone]	–	100%	–
CCC#CCN1N=C(c2cccc(Cl)c2)CCC1=O [Compound 216, 6-(3-chlorophenyl)-2-(2'-pentynyl)-4,5-dihydropyridazinone]	–	100%	–
CCC#CCN1N=C(c2cccc(C#N)c2)CCC1=O [Compound 217, 6-(3-cyanophenyl)-2-(2'-pentynyl)-4,5-dihydropyridazinone]	–	100%	–
CCC#CCN1N=C(c2cccc([N+](=O)[O-])c2)CCC1=O [Compound 218, 6-(3-nitrophenyl)-2-(2'-pentynyl)-4,5-dihydropyridazinone]	–	100%	–
CCC#CCN1N=C(c2cccc(OC)c2)CCC1=O [Compound 219, 6-(3-methoxyphenyl)-2-(2'-pentynyl)-4,5-dihydropyridazinone]	–	100%	–
CCC#CCN1N=C(c2ccc(C)c(OC)c2)CCC1=O [Compound 220, 6-(3-methoxy-4-methylphenyl)-2-(2'-pentynyl)-4,5-dihydropyridazinone]	–	100%	–
CCC#CCN1N=C(c2ccc(F)c(F)c2)CCC1=O [Compound 224, 6-(3,4-difluorophenyl)-2-(2'-pentynyl)-4,5-dihydropyridazinone]	–	100%	–
CCC#CCN1N=C(c2ccc(C)c(F)c2)CCC1=O [Compound 225, 6-(3-fluoro-4-methylphenyl)-2-(2'-pentynyl)-4,5-dihydropyridazinone]	–	100%	–
CCC#CCN1N=C(c2ccc(OC)c(C)c2)CCC1=O [Compound 226]	–	100%	–
CCC#CCN1N=C(c2ccc3c(c2)CCc2ccccc2-3)CCC1=O [Compound 227, 6-(9,10-dihydro-2-phenanthrene)-2-(2'-pentynyl)-4,5-dihydropyridazinone]	30%	–	–
CCC#CCn1nc(-c2ccccc2)c(-c2ccccc2)c(C#N)c1=O [Compound 228, 5,6-diphenyl-4-cyano-2-(2'-pentynyl)-pyridazinone]	50%	–	–
CCC#CCN1N=C(c2cnc3ccccc3n2)CCC1=O [Compound 230, 6-(2-quinoxaline)-2-(2'-pentynyl)-4,5-dihydropyridazinone]	30%	–	–
Cc1noc(C)c1CN1N=C(c2ccc(Cl)cc2)CCC1=O [Compound 231, 6-(4-chlorophenyl)-2-(3,5-dimethyl-4-isoxolylmethyl)-4,5-dihydropyridazinone]	36%	–	–
CCC#CCn1nc2c(cc1=O)-c1cccc3cccc-2c13 [Compound 232, 8-(2'-pentynyl)-acenaphtho[1,2c]pyridazin-9-one]	–	–	inhibition at 5 ppm (fungal mycelium): 45.5%
NNC(=O)CN1N=C(c2ccc(Cl)cc2)CCC1=O [Compound 233, 6-(4-chlorophenyl)-2-(acetyl hydrazide)4,5-dihydropyridazinone]	–	–	inhibition at 100 ppm (fungal mycelium): 21%
CC(=O)CC(C)=NNC(=O)CN1N=C(c2ccc(Cl)cc2)CCC1=O [Compound 234, 6-(4-chlorophenyl)-2-[N-acetylhydrazide-(N'-2,4-pentanedione-hydrazone)]-4,5-dihydropyridazinone]	–	–	inhibition at 100 ppm (fungal mycelium): 42%
CCC#CCN1N=C(c2csc3ccccc23)CCC1=O [Compound 235, 6-(3-thianaphthene)-2-(2'-pentynyl)-4,5-dihydropyridazinone]	–	–	inhibition at 100 ppm (fungal mycelium): 100%
